Counter-ions that a name gives are not always drawn.
Tests used:
BACE2 = biological target: T1, BACE2 (Homo sapiens, UniProt Q9Y5Z0); test: Assay A: binding studies using SPR based methods, immobilised BACE2; details: CM5 chip, immobilised BACE2 enzyme ectodomain, acetate buffer pH 4.6, 4% DMSO
T1 construct: BACE2 enzyme ectodomain (derived from plasmid “pET17b-T7-hu proBACE2”); T7 (N); made in house
T1 sequence (Q9Y5Z0 63-473 limits assumed): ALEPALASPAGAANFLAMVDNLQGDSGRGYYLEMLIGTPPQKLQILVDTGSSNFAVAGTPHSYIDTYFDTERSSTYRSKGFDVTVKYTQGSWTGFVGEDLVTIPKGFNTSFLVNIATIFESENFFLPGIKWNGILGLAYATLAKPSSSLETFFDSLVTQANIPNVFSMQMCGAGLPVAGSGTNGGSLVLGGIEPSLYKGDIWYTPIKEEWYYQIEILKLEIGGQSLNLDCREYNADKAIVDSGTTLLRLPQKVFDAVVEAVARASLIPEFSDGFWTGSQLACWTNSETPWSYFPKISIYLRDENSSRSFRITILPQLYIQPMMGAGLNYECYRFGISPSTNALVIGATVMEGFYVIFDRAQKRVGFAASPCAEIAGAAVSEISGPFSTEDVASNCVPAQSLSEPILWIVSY

BACE1 = BACE1 (Homo sapiens, UniProt P56817); test: Assay A: binding studies using SPR based methods, immobilised BACE1; parameters: 6his-tagged full length BACE 1 expressed in SF9 cells; 6His; made in house; host or cells: SF9 insect cells; details: CM5 chip, immobilised 6his-tagged full length BACE 1, acetate buffer pH 4.6, 4% DMSO;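 note: KD from a 1:1 kinetic fit (koff/kon) of real-time association and dissociation curves, or for fast binders from end-of-association equilibrium responses plotted against log concentration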
Sequence of BACE1 (P56817 46-501): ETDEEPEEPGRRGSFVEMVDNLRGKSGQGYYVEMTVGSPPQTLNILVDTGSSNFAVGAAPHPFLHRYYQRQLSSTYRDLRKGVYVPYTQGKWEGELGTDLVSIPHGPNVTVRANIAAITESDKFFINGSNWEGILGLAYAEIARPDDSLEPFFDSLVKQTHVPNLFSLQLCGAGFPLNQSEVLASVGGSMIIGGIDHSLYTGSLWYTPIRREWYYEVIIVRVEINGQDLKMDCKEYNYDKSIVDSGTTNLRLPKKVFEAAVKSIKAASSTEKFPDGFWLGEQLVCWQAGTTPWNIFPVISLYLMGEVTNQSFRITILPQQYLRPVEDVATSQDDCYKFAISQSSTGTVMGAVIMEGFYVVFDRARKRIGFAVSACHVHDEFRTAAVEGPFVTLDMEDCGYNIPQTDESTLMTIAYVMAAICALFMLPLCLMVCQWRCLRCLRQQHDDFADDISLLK

Kd (BACE2) [µM]	Kd (BACE1) [µM]	Compound
1.76	> 10	C[C@@]1(c2cc(NC=O)ccc2F)COCC(N)=N1 [Example 97, N-[3-((R)-5-Amino-3-methyl-3,6-dihydro-2H-[1,4]oxazin-3-yl)-4-fluoro-phenyl]-formamide formate]
0.513	1.41	CC1(c2cccc(NC(=O)c3cc4ccccn4n3)c2)COCC(N)=N1 (racemic) [Example 16, (RS)-Pyrazolo[1,5-a]pyridine-2-carboxylic acid [3-(5-amino-3-methyl-3,6-dihydro-2H-[1,4]oxazin-3-yl)-phenyl]-amide]
6.1	> 10	CC1(C)OCC(N)=N[C@]1(C)c1cc(NC(=O)C2CC2)ccc1F [Example 54, cyclopropanecarboxylic acid [3-((R)-5-amino-2,2,3-trimethyl-3,6-dihydro-2H-[1,4]oxazin-3-yl)-4-fluoro-phenyl]-amide]
4	9.6	C[C@@]1(c2cc(NC(=O)C3CC(F)(F)C3)ccc2F)COCC(N)=N1 [Example 59, 3,3-difluoro-cyclobutanecarboxylic acid [3-((R)-5-amino-3-methyl-3,6-dihydro-2H-[1,4]oxazin-3-yl)-4-fluoro-phenyl]-amide]
5.4	33	CC1(c2cccc(NC(=O)c3ccn(CC(F)(F)F)n3)c2)COCC(N)=N1 (racemic) [Example 14, (RS)-1-(2,2,2-trifluoro-ethyl)-1H-pyrazole-3-carboxylic acid [3-(5-amino-3-methyl-3,6-dihydro-2H-[1,4]oxazin-3-yl)-phenyl]-amide]
6	1.5	CCC(C)c1cc(Cl)cnc1C(=O)Nc1ccc(F)c([C@]2(C)COCC(N)=N2)c1 (mixture of isomers) [Example 71, 3-((RS)-sec-butyl)-5-chloro-pyridine-2-carboxylic acid [3-((R)-5-amino-3-methyl-3,6-dihydro-2H-[1,4]oxazin-3-yl)-4-fluoro-phenyl]-amide hydrochloride]
0.361	3.3	Cc1nc(C(=O)Nc2cccc(C3(C)COCC(N)=N3)c2)cs1 (racemic) [Example 10, (RS)-2-methyl-thiazole-4-carboxylic acid [3-(5-amino-3-methyl-3,6-dihydro-2H-[1,4]oxazin-3-yl)-phenyl]-amide]
5.3	62.5	CC1(c2cccc(NC(=O)c3cc(F)ccc3F)c2)COCC(N)=N1 (racemic) [Example 5, (RS)—N-[3-(5-amino-3-methyl-3,6-dihydro-2H-[1,4]oxazin-3-yl)-phenyl]-2,5-difluoro-benzamide]
3.6	> 10	C[C@@]1(c2cc(NC(=O)C3CC(Cl)C3)ccc2F)COCC(N)=N1 (stereo partly drawn) [Example 58, 3-chloro-cyclobutanecarboxylic acid [3-((R)-5-amino-3-methyl-3,6-dihydro-2H-[1,4]oxazin-3-yl)-4-fluoro-phenyl]-amide]
3.6	> 10	CC(C)CC(=O)Nc1ccc(F)c([C@]2(C)COCC(N)=N2)c1 [Example 95, N-[3-((R)-5-amino-3-methyl-3,6-dihydro-2H-[1,4]oxazin-3-yl)-4-fluoro-phenyl]-3-methyl-butyramide formate]
3.6	> 10	COCC1(C(=O)Nc2ccc(F)c([C@]3(C)COCC(N)=N3)c2)CC1 [Example 86, 1-methoxymethyl-cyclopropanecarboxylic acid [3-((R)-5-amino-3-methyl-3,6-dihydro-2H-[1,4]oxazin-3-yl)-4-fluoro-phenyl]-amide formate]
0.015	0.011	C[C@@]1(c2cc(NC(=O)c3ncc(C#N)cc3Cl)ccc2F)COCC(N)=N1 [Example 67, 3-Chloro-5-cyano-pyridine-2-carboxylic acid [3-((R)-5-amino-3-methyl-3,6-dihydro-2H-[1,4]oxazin-3-yl)-4-fluoro-phenyl]-amide hydrochloride]

Reference: patent US20130196984A1, “3-AMINO-5-PHENYL-56-DIHYDRO-2H-[1,4]OXAZINES” (Siena Biotech S.p.A., priority 2009, published 2013)
